Data taken from ChEMBL document CHEMBL5385846, “Discovery and development of palmatine analogues as anti-NASH agents by activating farnesoid X receptor (FXR)” (Eur J Med Chem, 2023).
Calls of active or inactive are those of the source. The calls are words filed in the database; no cut-off is given here.

Legend:
Mus musculus [1] = experiment: Hepatoprotective activity in CDAHFD induced C57BL/6N mouse liver injury model assessed as decrease in ALT level at 200 mg/kg,po qd administration for 4 weeks; assay type: functional, organism-based
[2] = Metabolic stability in Sprague-Dawley rat liver microsomes assessed as microsomal intrinsic clearance at 1 micromol/L measured upto 60 mins in presence of NADPH by LC-MS/MS analysis; assay type: ADME, Microsome; conditions: dose 1 µmol/L, read-out: CLH
[3] = Metabolic stability in human liver microsomes assessed as intrinsic clearance at 1 micromol/L measured upto 60 mins in presence of NADPH by LC-MS/MS analysis; assay type: ADME, Microsome; conditions: 1 h, 1 µM, dose 1 µmol/L
Mus musculus [4] = experiment: Anti-inflammatory activity in CDAHFD induced C57BL/6N mouse liver injury model assessed as reduction in inflammatory cell infiltration in liver at 200 mg/kg,po qd administration for 4 weeks by hematoxylin and eosin staining based assay; assay type: functional, organism-based
Mus musculus [5] = experiment: Anti-inflammatory activity in CDAHFD induced C57BL/6N mouse liver injury model assessed as downregulation of IL-6 protein expression in liver at 200 mg/kg,po qd administration for 4 weeks by Western blotting analysis; assay type: functional, organism-based
[6] = Acute toxicity in Kunming mouse assessed as effect on blood urea nitrogen level at 250 to 1000 mg/kg,po administration; assay type: organism-based; conditions: in vivo, dose 250-1000 mg/kg
Mus musculus [7] = experiment: Hepatoprotective activity in CDAHFD induced C57BL/6N mouse liver injury model assessed as decrease in LDH level at 200 mg/kg,po qd administration for 4 weeks; assay type: functional, organism-based
LX-2 [8] = experiment: Antifibrotic activity in TGF-beta1 induced human LX2 cells assessed as downregulation of alpha-SMA protein expression incubated for 24 hrs by western blotting analysis; assay type: functional, cell-based
Mus musculus [9] = experiment: Hepatoprotective activity in CDAHFD induced C57BL/6N mouse liver injury model assessed as reduction in fatty droplets at 200 mg/kg,po qd administration for 4 weeks by Oil red-O staining based microscopic analysis; assay type: functional, organism-based
Mus musculus [10] = experiment: Antifibrotic activity in CDAHFD induced non-alcoholic steatohepatitis C57BL/6N mouse model assessed as downregulation of COL1A1 mRNA expression at 200 mg/kg,po qd administration for 4 weeks by qRT-PCR analysis; assay type: functional, organism-based
LX-2 [11] = experiment: Antifibrotic activity in TGF-beta1 induced human LX2 cells assessed as downregulation of TGF-beta1 mRNA expression incubated for 24 hrs by qRT-PCR analysis; assay type: functional, cell-based
[12] = Acute toxicity in Kunming mouse assessed as lethal dose at po administration; assay type: organism-based; conditions: in vivo
Mus musculus [13] = experiment: Antifibrotic activity in CDAHFD induced non-alcoholic steatohepatitis C57BL/6N mouse model assessed as downregulation of COL1A1 protein expression at 200 mg/kg,po qd administration for 4 weeks by Western blotting analysis; assay type: functional, organism-based
Rattus norvegicus [14] = experiment: Hepatoprotective activity in bile duct ligation induced Sprague-Dawley rat liver injury model assessed as decrease in ALT level at 200 mg/kg,po qd administration for 14 days; assay type: functional, organism-based; conditions: time 14.0 day
[15] = Cytotoxicity against human LX2 cells assessed as inhibition of cell growth; assay type: toxicity, cell-based, LX-2
[16] = Metabolic stability in CD-1 mouse liver microsomes assessed as intrinsic clearance at 1 micromol/L measured upto 60 mins in presence of NADPH by LC-MS/MS analysis; assay type: ADME, Microsome; conditions: 1 h, 1 µM, dose 1 µmol/L
Mus musculus [17] = experiment: Hepatoprotective activity in CDAHFD induced C57BL/6N mouse liver injury model assessed as decrease in total cholesterol level at 200 mg/kg,po qd administration for 4 weeks; assay type: functional, organism-based
Mus musculus [18] = experiment: Antifibrotic activity in CDAHFD induced non-alcoholic steatohepatitis C57BL/6N mouse model assessed as downregulation of MMP2 protein expression at 200 mg/kg,po qd administration for 4 weeks by Western blotting analysis; assay type: functional, organism-based
Mus musculus [19] = experiment: Hepatoprotective activity in CDAHFD induced C57BL/6N mouse liver injury model assessed as decrease in AST level at 200 mg/kg,po qd administration for 4 weeks; assay type: functional, organism-based
Mus musculus [20] = experiment: Antifibrotic activity in CDAHFD induced non-alcoholic steatohepatitis C57BL/6N mouse model assessed as downregulation of MMP2 mRNA expression at 200 mg/kg,po qd administration for 4 weeks by qRT-PCR analysis; assay type: functional, organism-based
Rattus norvegicus [21] = experiment: Hepatoprotective activity in bile duct ligation induced Sprague-Dawley rat liver injury model assessed as decrease in AST level at 200 mg/kg,po qd administration for 14 days; assay type: functional, organism-based; conditions: time 14.0 day
Rattus norvegicus [22] = experiment: Hepatoprotective activity in bile duct ligation induced Sprague-Dawley rat liver injury model assessed as decrease in total bilirubin level at 200 mg/kg,po qd administration for 14 days; assay type: functional, organism-based; conditions: time 14.0 day
Mus musculus [23] = experiment: Hepatoprotective activity in CDAHFD induced C57BL/6N mouse liver injury model assessed as decrease in triglyceride level at 200 mg/kg,po qd administration for 4 weeks; assay type: functional, organism-based
[24] = Metabolic stability in human liver microsomes assessed as compound remaining at 1 micromol/L measured upto 60 mins in presence of NADPH by LC-MS/MS analysis; assay type: ADME, Microsome; conditions: dose 1 µmol/L, read-out: Stability
Rattus norvegicus [25] = experiment: Antifibrotic activity in bile duct ligation induced Sprague-Dawley rat liver fibrosis model assessed as upregulation of FXR protein expression at 200 mg/kg,po qd administration for 14 days by Western blotting analysis; assay type: functional, organism-based; conditions: time 14.0 day
Mus musculus [26] = experiment: Antifibrotic activity in CDAHFD induced non-alcoholic steatohepatitis C57BL/6N mouse model assessed as downregulation of TGF-beta1 mRNA expression at 200 mg/kg,po qd administration for 4 weeks by qRT-PCR analysis; assay type: functional, organism-based
[27] = Half life in CD-1 mouse liver microsomes at 1 micromol/L measured upto 60 mins in presence of NADPH by LC-MS/MS analysis; assay type: ADME, Microsome; conditions: 1 h, 1 µM, dose 1 µmol/L
Rattus norvegicus [28] = experiment: Antifibrotic activity in bile duct ligation induced Sprague-Dawley rat liver fibrosis model assessed as downregulation of TGF-beta1 mRNA expression at 200 mg/kg,po qd administration for 14 days by qRT-PCR analysis; assay type: functional, organism-based; conditions: time 14.0 day
Mus musculus [29] = experiment: Anti-inflammatory activity in CDAHFD induced C57BL/6N mouse liver injury model assessed as downregulation of MCP1 mRNA expression in liver at 200 mg/kg,po qd administration for 4 weeks by qRT-PCR analysis; assay type: functional, organism-based
THP-1 [30] = experiment: Anti-inflammatory activity in PMA differentiated human THP-1 cells assessed as downregulation of IL-1beta protein expression at 10 micromol/L incubated for 4 hrs followed by LPS and Nigericin addition for 3.5 hrs by Western blotting analysis; assay type: functional, cell-based; conditions: dose 10.0 µmol/L, time 7.5 hrs
THP-1 [31] = experiment: Anti-inflammatory activity in PMA differentiated human THP-1 cells assessed as downregulation of IL-1beta protein expression at 5 micromol/L incubated for 4 hrs followed by LPS and Nigericin addition for 3.5 hrs by Western blotting analysis; assay type: functional, cell-based; conditions: dose 5.0 µmol/L, time 7.5 hrs
[32] = Acute toxicity in Kunming mouse assessed as effect on […] level at 250 to 1000 mg/kg,po administration; assay type: organism-based; conditions: in vivo, dose 250-1000 mg/kg
[33] = Metabolic stability in CD-1 mouse liver microsomes assessed as microsomal intrinsic clearance at 1 micromol/L measured upto 60 mins in presence of NADPH by LC-MS/MS analysis; assay type: ADME, Microsome; conditions: dose 1 µmol/L, read-out: CLH

For `COc1cc2c(cc1OC)-c1cc3ccc(OC)c(OCc4cccc(C)c4)c3c[n+]1CC2.[Br-]`, the Activity (Mus musculus [1]) was “Active”, the microsomal CLint at 1 µM [2] was 188 µL/min/mg and the CLint,scaled [3] was 23.4 mL/min/kg. The Activity (Mus musculus [4]) was “Active”, the Activity (Mus musculus [5]) was “Active” and the Activity [6] was “Non-Toxic”. For the same molecule, the Activity (Mus musculus [7]) was “Active”, the Activity (LX-2 [8]) was “Dose-Dependent Effect” and the Activity (Mus musculus [9]) was “Active”. The Activity (Mus musculus [10]) was “Active”, the Activity (LX-2 [11]) was “Dose-Dependent Effect” and the LD50 [12] was over 1000 mg/kg. For the same molecule, the Activity (Mus musculus [13]) was “Active”, the Activity (Rattus norvegicus [14]) was “Active” and the CC50 [15] was 70.4 µM. The CLint,scaled [16] was 744 mL/min/kg, the Activity (Mus musculus [17]) was “inactive” and the Activity (Mus musculus [18]) was “Active”. For the same molecule, the Activity (Mus musculus [19]) was “Active”, the Activity (Mus musculus [20]) was “Active” and the Activity (Rattus norvegicus [21]) was “Active”. The Activity (Rattus norvegicus [22]) was “Active”, the Activity (Mus musculus [23]) was “inactive” and the remaining at 1 h, 1 µM [24] was 44.1%. For the same molecule, the Activity (Rattus norvegicus [25]) was “Active”, the Activity (Mus musculus [26]) was “Active” and the t1/2 [27] was 7.4 min. For the same molecule, the Activity (Rattus norvegicus [28]) was “Active”, the Activity (Mus musculus [29]) was “Active” and the Activity (THP-1 [30]) was “Active”. The Activity (THP-1 [31]) was “Active”, the Activity [32] was “Non-Toxic” and the microsomal CLint at 1 µM [33] was 188 µL/min/mg.
